Data from patent publication US10336730B2, “Substituted glycine derived FXIA inhibitors” (BRISTOL-MYERS SQUIBB COMPANY, priority 2015, dated 2019).

target: T1, purified human Factor XIa (Homo sapiens, UniProt P03951); assay: Factor XIa enzyme inhibition assay (chromogenic substrate S-2366), Ki; format: biochemical; details: substrate S-2366, pH 7.4
T1 construct: purchased Haematologic Technologies
How it was run: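 Purified human Factor XIa ([…] final) with chromogenic substrate S-2366 (0.0002-0.001 M) in 50 mM HEPES pH 7.4, 145 mM NaCl, 5 mM KCl, 0.1% PEG 8000. Velocities measured over 20-180 minutes with and without inhibitor; Ki derived assuming competitive inhibition, e.g. Ki=IC50/(1+S/Km).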

T1 sequence (P03951 388-625 limits assumed): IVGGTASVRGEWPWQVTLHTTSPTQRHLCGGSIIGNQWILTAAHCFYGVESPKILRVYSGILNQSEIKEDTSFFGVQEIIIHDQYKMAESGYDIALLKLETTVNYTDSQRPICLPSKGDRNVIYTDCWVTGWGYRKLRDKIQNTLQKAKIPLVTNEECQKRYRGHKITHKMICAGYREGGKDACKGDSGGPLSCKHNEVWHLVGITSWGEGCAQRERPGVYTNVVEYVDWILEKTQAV
T1 sequence (P03951 19-387 partner limits assumed): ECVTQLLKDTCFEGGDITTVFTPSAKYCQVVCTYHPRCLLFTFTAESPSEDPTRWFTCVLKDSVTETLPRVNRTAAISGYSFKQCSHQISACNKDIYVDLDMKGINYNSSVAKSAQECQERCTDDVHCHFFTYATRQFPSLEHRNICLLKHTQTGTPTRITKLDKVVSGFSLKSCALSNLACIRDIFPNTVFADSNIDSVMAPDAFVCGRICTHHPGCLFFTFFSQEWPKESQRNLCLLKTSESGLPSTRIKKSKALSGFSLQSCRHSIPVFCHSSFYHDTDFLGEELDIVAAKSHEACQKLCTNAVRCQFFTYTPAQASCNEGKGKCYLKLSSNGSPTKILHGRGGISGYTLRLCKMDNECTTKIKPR

SMILES | Ki [µM]
Cn1ccnc1N1CCN(C(=O)[C@H](Cc2ccccc2)n2cnc(-c3cc(Cl)ccc3-n3cc(Cl)nn3)cc2=O)CC1 [Example 83, (S)-6-(5-chloro-2-(4-chloro-1H-1,2,3-triazol-1-yl)phenyl)-3-(1-(4-(1-methyl-1H-imidazol-2-yl)piperazin-1-yl)-1-oxo-3-phenylpropan-2-yl)pyrimidin-4(3H)-one] | 3.11
NS(=O)(=O)C1CCN(C(=O)[C@H](Cc2ccccc2)n2cnc(-c3cc(Cl)ccc3-n3cc(Cl)nn3)cc2=O)CC1 [Example 84, (S)-1-(2-(4-(5-chloro-2-(4-chloro-1H-1,2,3-triazol-1-yl)phenyl)-6-oxopyrimidin-1(6H)-yl)-3-phenylpropanoyl)piperidine-4-sulfonamide] | 2.52
O=C([C@H](Cc1ccccc1)n1cnc(-c2cc(Cl)ccc2-n2cc(Cl)nn2)cc1=O)N1CCC1 [Example 88, (S)-3-(1-(azetidin-1-yl)-1-oxo-3-phenylpropan-2-yl)-6-(5-chloro-2-(4-chloro-1H-1,2,3-triazol-1-yl)phenyl)pyrimidin-4(3H)-one] | 5.61
O=C(NCc1n[nH]c2c1CCCC2)[C@H](Cc1ccccc1)n1cnc(-c2cc(Cl)ccc2-n2cc(Cl)nn2)cc1=O [Example 91, (S)-2-(4-(5-chloro-2-(4-chloro-1H-1,2,3-triazol-1-yl)phenyl)-6-oxopyrimidin-1(6H)-yl)-3-phenyl-N-((4,5,6,7-tetrahydro-1H-indazol-3-yl)methyl)propanamide] | 2.85
CN(C)Cc1nccn1-c1ccc(NC(=O)[C@H](Cc2ccccc2)n2cnc(-c3cc(Cl)ccc3-n3cc(Cl)nn3)cc2=O)c(F)c1 [Example 95, (S)-2-(4-(5-chloro-2-(4-chloro-1H-1,2,3-triazol-1-yl)phenyl)-6-oxopyrimidin-1(6H)-yl)-N-(4-(2-((dimethylamino)methyl)-1H-imidazol-1-yl)-2-fluorophenyl)-3-phenylpropanamide] | 0.783
O=C1NCCc2cc(NC(=O)[C@H](Cc3ccccc3)n3cnc(-c4cc(Cl)ccc4-n4cc(Cl)nn4)cc3=O)ccc21 [Example 97, (S)-2-(4-(5-chloro-2-(4-chloro-1H-1,2,3-triazol-1-yl)phenyl)-6-oxopyrimidin-1(6H)-yl)-N-(1-oxo-1,2,3,4-tetrahydroisoquinolin-6-yl)-3-phenylpropanamide] | 0.0278
Nc1n[nH]c2ccc(NC(=O)[C@H](Cc3ccccc3)n3cnc(-c4cc(Cl)ccc4-n4cc(Cl)nn4)cc3=O)cc12 [Example 98, (S)-N-(3-amino-1H-indazol-5-yl)-2-(4-(5-chloro-2-(4-chloro-1H-1,2,3-triazol-1-yl)phenyl)-6-oxopyrimidin-1(6H)-yl)-3-phenylpropanamide] | 0.554
O=C([C@H](Cc1ccccc1)n1cnc(-c2cc(Cl)ccc2-n2cc(Cl)nn2)cc1=O)N1CCn2ncnc2C1 [Example 99, (S)-6-(5-chloro-2-(4-chloro-1H-1,2,3-triazol-1-yl)phenyl)-3-(1-(5,6-dihydro-[1,2,4]triazolo[1,5-a]pyrazin-7(8H)-yl)-1-oxo-3-phenylpropan-2-yl)pyrimidin-4(3H)-one] | 7.37
CC(=O)NC1CCN(C(=O)[C@H](Cc2ccccc2)n2cnc(-c3cc(Cl)ccc3-n3cc(Cl)nn3)cc2=O)CC1 [Example 102, (S)-N-(1-(2-(4-(5-chloro-2-(4-chloro-1H-1,2,3-triazol-1-yl)phenyl)-6-oxopyrimidin-1(6H)-yl)-3-phenylpropanoyl)piperidin-4-yl)acetamide] | 3.05
O=C(NC1CCC(O)CC1)[C@H](Cc1ccccc1)n1cnc(-c2cc(Cl)ccc2-n2cc(Cl)nn2)cc1=O (stereo partly drawn) [Example 103, (S)-2-(4-(5-chloro-2-(4-chloro-1H-1,2,3-triazol-1-yl)phenyl)-6-oxopyrimidin-1(6H)-yl)-N-(4-hydroxycyclohexyl)-3-phenylpropanamide] | 0.127
O=C(O)C[C@H]1CC[C@H](NC(=O)[C@H](Cc2ccccc2)n2cnc(-c3cc(Cl)ccc3-n3cc(Cl)nn3)cc2=O)CC1 [Example 108, 2-((1S,4r)-4-((S)-2-(4-(5-chloro-2-(4-chloro-1H-1,2,3-triazol-1-yl)phenyl)-6-oxopyrimidin-1(6H)-yl)-3-phenylpropanamido)cyclohexyl)acetic acid] | 0.22

More lines, now with the values ahead:

Ki [µM] | SMILES
7.37 | O=C(NCCc1ncn[nH]1)[C@H](Cc1ccccc1)n1cnc(-c2cc(Cl)ccc2-n2cc(Cl)nn2)cc1=O [Example 82, (S)-N-(2-(1H-1,2,4-triazol-5-yl)ethyl)-2-(4-(5-chloro-2-(4-chloro-1H-1,2,3-triazol-1-yl)phenyl)-6-oxopyrimidin-1(6H)-yl)-3-phenylpropanamide]
1.73 | COCCNC(=O)[C@H](Cc1ccccc1)n1cnc(-c2cc(Cl)ccc2-n2cc(Cl)nn2)cc1=O [Example 85, (S)-2-(4-(5-chloro-2-(4-chloro-1H-1,2,3-triazol-1-yl)phenyl)-6-oxopyrimidin-1(6H)-yl)-N-(2-methoxyethyl)-3-phenylpropanamide]
5.5 | O=C(NCCO)[C@H](Cc1ccccc1)n1cnc(-c2cc(Cl)ccc2-n2cc(Cl)nn2)cc1=O [Example 86, (S)-2-(4-(5-chloro-2-(4-chloro-1H-1,2,3-triazol-1-yl)phenyl)-6-oxopyrimidin-1(6H)-yl)-N-(2-hydroxyethyl)-3-phenylpropanamide]
0.21 | CC(C)CCNC(=O)[C@H](Cc1ccccc1)n1cnc(-c2cc(Cl)ccc2-n2cc(Cl)nn2)cc1=O [Example 87, (S)-2-(4-(5-chloro-2-(4-chloro-1H-1,2,3-triazol-1-yl)phenyl)-6-oxopyrimidin-1(6H)-yl)-N-isopentyl-3-phenylpropanamide]
1.94 | CCCNC(=O)[C@H](Cc1ccccc1)n1cnc(-c2cc(Cl)ccc2-n2cc(Cl)nn2)cc1=O [Example 89, (S)-2-(4-(5-chloro-2-(4-chloro-1H-1,2,3-triazol-1-yl)phenyl)-6-oxopyrimidin-1(6H)-yl)-3-phenyl-N-propylpropanamide]
5.92 | CN(C)CCCNC(=O)[C@H](Cc1ccccc1)n1cnc(-c2cc(Cl)ccc2-n2cc(Cl)nn2)cc1=O [Example 90, (S)-2-(4-(5-chloro-2-(4-chloro-1H-1,2,3-triazol-1-yl)phenyl)-6-oxopyrimidin-1(6H)-yl)-N-(3-(dimethylamino)propyl)-3-phenylpropanamide]
0.126 | N#Cc1ccc(NC(=O)[C@H](Cc2ccccc2)n2cnc(-c3cc(Cl)ccc3-n3cc(Cl)nn3)cc2=O)cc1F [Example 92, (S)-2-(4-(5-chloro-2-(4-chloro-1H-1,2,3-triazol-1-yl)phenyl)-6-oxopyrimidin-1(6H)-yl)-N-(4-cyano-3-fluorophenyl)-3-phenylpropanamide]
0.111 | Cc1nccn1-c1ccc(NC(=O)[C@H](Cc2ccccc2)n2cnc(-c3cc(Cl)ccc3-n3cc(Cl)nn3)cc2=O)cc1 [Example 93, (S)-2-(4-(5-chloro-2-(4-chloro-1H-1,2,3-triazol-1-yl)phenyl)-6-oxopyrimidin-1(6H)-yl)-N-(4-(2-methyl-1H-imidazol-1-yl)phenyl)-3-phenylpropanamide]
0.0257 | O=C(Nc1ccc(-n2ccnc2)cc1)[C@H](Cc1ccccc1)n1cnc(-c2cc(Cl)ccc2-n2cc(Cl)nn2)cc1=O [Example 94, (S)-N-(4-(1H-imidazol-1-yl)phenyl)-2-(4-(5-chloro-2-(4-chloro-1H-1,2,3-triazol-1-yl)phenyl)-6-oxopyrimidin-1(6H)-yl)-3-phenylpropanamide]
7.05 | O=C(NCCc1cnccn1)[C@H](Cc1ccccc1)n1cnc(-c2cc(Cl)ccc2-n2cc(Cl)nn2)cc1=O [Example 100, (S)-2-(4-(5-chloro-2-(4-chloro-1H-1,2,3-triazol-1-yl)phenyl)-6-oxopyrimidin-1(6H)-yl)-3-phenyl-N-(2-(pyrazin-2-yl)ethyl)propanamide]
7.81 | O=C1OCC[C@@H]1NC(=O)[C@H](Cc1ccccc1)n1cnc(-c2cc(Cl)ccc2-n2cc(Cl)nn2)cc1=O [Example 101, (S)-2-(4-(5-chloro-2-(4-chloro-1H-1,2,3-triazol-1-yl)phenyl)-6-oxopyrimidin-1(6H)-yl)-N-((S)-2-oxotetrahydrofuran-3-yl)-3-phenylpropanamide]
0.231 | O=C(NC1CCCCC1)[C@H](Cc1ccccc1)n1cnc(-c2cc(Cl)ccc2-n2cc(Cl)nn2)cc1=O [Example 104, (S)-2-(4-(5-chloro-2-(4-chloro-1H-1,2,3-triazol-1-yl)phenyl)-6-oxopyrimidin-1(6H)-yl)-N-cyclohexyl-3-phenylpropanamide]
2.29 | Cn1ccc(CNC(=O)[C@H](Cc2ccccc2)n2cnc(-c3cc(Cl)ccc3-n3cc(Cl)nn3)cc2=O)n1 [Example 105, (S)-2-(4-(5-chloro-2-(4-chloro-1H-1,2,3-triazol-1-yl)phenyl)-6-oxopyrimidin-1(6H)-yl)-N-((1-methyl-1H-pyrazol-3-yl)methyl)-3-phenylpropanamide]
0.325 | Cc1ccc(NC(=O)[C@H](Cc2ccccc2)n2cnc(-c3cc(Cl)ccc3-n3cc(Cl)nn3)cc2=O)nn1 [Example 106, (S)-2-(4-(5-chloro-2-(4-chloro-1H-1,2,3-triazol-1-yl)phenyl)-6-oxopyrimidin-1(6H)-yl)-N-(6-methylpyridazin-3-yl)-3-phenylpropanamide]
4.55 | CC1=NN=C(NC(=O)[C@H](Cc2ccccc2)n2cnc(-c3cc(Cl)ccc3-n3cc(Cl)nn3)cc2=O)SC1 [Example 107, (S)-2-(4-(5-chloro-2-(4-chloro-1H-1,2,3-triazol-1-yl)phenyl)-6-oxopyrimidin-1(6H)-yl)-N-(5-methyl-6H-1,3,4-thiadiazin-2-yl)-3-phenylpropanamide]
0.15 | O=C(Nc1ncnc2[nH]ncc12)[C@H](Cc1ccccc1)n1cnc(-c2cc(Cl)ccc2-n2cc(Cl)nn2)cc1=O [Example 109, (S)-2-(4-(5-chloro-2-(4-chloro-1H-1,2,3-triazol-1-yl)phenyl)-6-oxopyrimidin-1(6H)-yl)-3-phenyl-N-(1H-pyrazolo[3,4-d]pyrimidin-4-yl)propanamide]
